We go through 15 molecules from patent US20110294766A1, “16 Alpha, 17 Alpha-Acetal Glucocorticosteroidal Derivatives and their Use” (AstraZeneca AB, priority 2008, published 2011).

In the test the target is T1, recombinant human GR (Homo sapiens, UniProt P04150).
T1 construct: purchased Panvera/Invitrogen P2812 (kit P2893)
T1 sequence (P04150 1-777): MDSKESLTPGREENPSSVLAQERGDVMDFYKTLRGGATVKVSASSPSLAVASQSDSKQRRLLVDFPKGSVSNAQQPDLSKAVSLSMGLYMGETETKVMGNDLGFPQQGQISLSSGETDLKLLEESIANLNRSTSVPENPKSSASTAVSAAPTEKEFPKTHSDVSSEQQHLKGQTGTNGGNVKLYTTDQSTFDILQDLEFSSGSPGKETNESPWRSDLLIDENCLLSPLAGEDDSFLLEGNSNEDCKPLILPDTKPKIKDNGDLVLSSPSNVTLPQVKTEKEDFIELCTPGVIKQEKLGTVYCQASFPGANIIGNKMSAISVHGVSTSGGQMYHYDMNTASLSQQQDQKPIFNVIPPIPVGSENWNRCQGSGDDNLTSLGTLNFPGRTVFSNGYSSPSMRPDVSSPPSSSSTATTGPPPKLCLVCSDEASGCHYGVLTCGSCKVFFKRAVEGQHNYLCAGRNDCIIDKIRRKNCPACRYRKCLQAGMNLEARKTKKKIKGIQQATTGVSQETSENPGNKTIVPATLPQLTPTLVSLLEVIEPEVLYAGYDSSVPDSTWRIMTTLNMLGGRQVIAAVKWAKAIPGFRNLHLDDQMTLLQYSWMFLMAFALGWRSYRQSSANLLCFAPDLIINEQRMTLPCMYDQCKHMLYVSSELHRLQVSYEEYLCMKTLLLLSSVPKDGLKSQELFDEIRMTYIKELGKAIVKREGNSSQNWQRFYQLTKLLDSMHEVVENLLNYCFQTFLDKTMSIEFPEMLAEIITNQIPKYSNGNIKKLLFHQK
Put plainly: Human Glucocorticoid Receptor (GR) Assay (fluorescence polarization, Panvera/Invitrogen kit). Particulars: GS Red tracer, 2 hours at room temperature, 100% control 10 μM Dexamethasone, read-out: Inhibition of GR binding, IC50. As to the method:
Human Glucocorticoid Receptor (GR) Assay The assay is based on a commercial kit from Panvera/Invitrogen (Part number P2893). The assay technology is fluorescence polarization. The kit utilises recombinant human GR (Panvera, Part number P2812), a Fluoromone™ labelled tracer (GS Red, Panvera, Part number P2894) and a Stabilizing Peptide 10× (Panvera, Part number P2815). The GR and Stabilizing Peptide reagents are stored at −70° C. while the GS Red is stored at −20° C. Also included in the kit are 1M DTT (Panvera, Part number P2325, stored at −20° C.) and GR Screening buffer 10× (Panvera, Part number P2814, stored at −70° C. initially but once thawed stored at room temperature). Avoid repeated freeze/thaws for all reagents. The GR Screening buffer 10× comprises 100 mM potassium phosphate, 200 mM sodium molybdate, 1 mM EDTA and 20% DMSO. Test compounds (1 μL) and controls (1 μL) in 100% DMSO were added to black polystyrene 384-well plates (Greiner low volume black flat-bottom, part number 784076). 0% control was 100% DMSO and 100% control was 10 μM Dexamethasone. Background solution (8 μL; assay buffer 10×, Stabilizing Peptide, DTT and ice cold MQ water) was added to the background wells. GS Red solution (7 μL; assay buffer 10×, Stabilizing Peptide, DTT, GS Red and ice cold water) was added to all wells except background wells. GR solution (7 μL; assay buffer 10×, Stabilizing Peptide, DTT, GR and ice cold water) was added to all wells. The plate was sealed and incubated in a dark at room temperature for 2 hours. The plate was read in an Analyst plate reader (LJL Biosystems/Molecular Devices Corporation) or other similar plate reader capable of recording fluorescence polarization (excitation wavelength 530 nm, emission wavelength 590 nm and a dichroic mirror at 561 nm).
Background: Polarisation of emitted light reports the rotation of a fluorescent probe.
One may read the IC50 as the concentration that inhibits the measured activity by half. For `C[C@]12C=CC(=O)C=C1CC[C@@H]1[C@@H]2[C@@H](O)C[C@@]2(C)[C@H]1C[C@H]1OC(c3ccc(C(F)(F)F)cc3)O[C@]12C(=O)SCF` (stereo partly drawn) [Example 40, S-(Fluoromethyl)(4aR,4bS,5S,6aS,6bS,9aR,10aS,10bS)-5-hydroxy-4a,6a-dimethyl-2-oxo-8-[4-(trifluoromethyl)phenyl]-2,4a,4b,5,6,6a,9a,10,10a,10,11,12-dodecahydro-6bH-naphtho[2′,1′:4,5]indeno[1,2-d][1,3]dioxole-6b-carbothioate], the IC50 came out at 1.7 nM.

Regarding `C[C@]12C=CC(=O)C=C1CC[C@@H]1[C@@H]2[C@@H](O)C[C@@]2(C)[C@H]1C[C@H]1OC(c3ccco3)O[C@]12C(=O)SCF` (stereo partly drawn) [Example 34, S-(Fluoromethyl)(4aR,4bS,5S,6aS,6bS,9aR,10aS,10bS)-8-furan-2-yl-5-hydroxy-4a,6a-dimethyl-2-oxo-2,4a,4b,5,6,6a,9a,10,10a,10b,11,12-dodecahydro-6bH-naphtho[2′,1′:4,5]indeno[1,2-d][1,3]dioxole-6b-carbothioate], the IC50 was determined as 1 nM. The result for `C[C@]12C=CC(=O)C=C1[C@@H](F)C[C@H]1[C@@H]3C[C@H]4OC(c5ccco5)O[C@@]4(C(=O)SCC#N)[C@@]3(C)C[C@H](O)[C@@]12F` (stereo partly drawn) [Example 1] reads 1.2 nM. Then `C[C@]12C=CC(=O)C=C1[C@@H](F)C[C@H]1[C@@H]3C[C@H]4OC(c5ccc(Cl)o5)O[C@@]4(C(=O)SCF)[C@@]3(C)C[C@H](O)[C@@]12F` (stereo partly drawn) [Example 11, S-(Fluoromethyl)(4aS,4bR,5S,6aS,6bS,9aR,10aS,10bS,12S)-8-(5-chloro-2-furyl)-4b,12-difluoro-5-hydroxy-4a,6a-dimethyl-2-oxo-2,4a,4b,5,6,6a,9a,10,10a,10b,11,12-dodecahydro-6bH-naphtho[2′,1′:4,5]indeno[1,2-d][1,3]dioxole-6b-carbothioate], with 0.59 nM. The result for `C[C@]12C=CC(=O)C=C1[C@@H](F)C[C@H]1[C@@H]3C[C@H]4OC(c5ccc(F)cc5F)O[C@@]4(C(=O)SCF)[C@@]3(C)C[C@H](O)[C@@]12F` (stereo partly drawn) [Example 6, S-(Fluoromethyl)(4aS,4bR,5S,6aS,6bS,9aR,10aS,10bS,12S)-8-(2,4-difluorophenyl)-4b,12-difluoro-5-hydroxy-4a,6a-dimethyl-2-oxo-2,4a,4b,5,6,6a,9a,10,10a,10b,11,12-dodecahydro-6bH-naphtho[2′,1′:4,5]indeno[1,2-d][1,3]dioxole-6b-carbothioate] reads 1.2 nM. Regarding `C[C@]12C=CC(=O)C=C1[C@@H](F)C[C@H]1[C@@H]3C[C@H]4OC(c5ccccc5)O[C@@]4(C(=O)SCF)[C@@]3(C)C[C@H](O)[C@@]12F` (stereo partly drawn) [Example 30, S-(Fluoromethyl)(4aS,4bR,5S,6aS,6bS,9aR,10aS,10bS,12S)-4b,12-difluoro-5-hydroxy-4a,6a-dimethyl-2-oxo-8-phenyl-2,4a,4b,5,6,6a,9a,10,10a,10b,11,12-dodecahydro-6bH-naphtho[2′,1′:4,5]indeno[1,2-d][1,3]dioxole-6b-carbothioate], the IC50 was 1.1 nM.

With `C[C@]12C=CC(=O)C=C1[C@@H](F)C[C@H]1[C@@H]3C[C@H]4OC(c5ccccc5F)O[C@@]4(C(=O)SCC#N)[C@@]3(C)C[C@H](O)[C@@]12F` (stereo partly drawn) [Example 27, S-(Cyanomethyl)(4aS,4bR,5S,6aS,6bS,9aR,10aS,10bS,12S)-4b,12-difluoro-8-(2-fluorophenyl)-5-hydroxy-4a,6a-dimethyl-2-oxo-2,4a,4b,5,6,6a,9a,10,10a,10b,11,12-dodecahydro-6bH-naphtho[2′,1′:4,5]indeno[1,2-d][1,3]dioxole-6b-carbothioate], the IC50 is 1.1 nM. For the molecule `C[C@]12C=CC(=O)C=C1[C@@H](F)C[C@H]1[C@@H]3C[C@H]4OC(c5ccc6ncccc6c5)O[C@@]4(C(=O)SCC#N)[C@@]3(C)C[C@H](O)[C@@]12F` (stereo partly drawn) [Example 16, S-(Cyanomethyl)(4aS,4bR,5S,6aS,6bS,9aR,10aS,10bS,12S)-4b,12-difluoro-5-hydroxy-4a,6a-dimethyl-2-oxo-8-quinolin-6-yl-2,4a,4b,5,6,6a,9a,10,10a,10b,11,12-dodecahydro-6bH-naphtho[2′,1′:4,5]indeno[1,2-d][1,3]dioxole-6b-carbothioate], the IC50 was 1.5 nM. The result for `C[C@]12C=CC(=O)C=C1[C@@H](F)C[C@H]1[C@@H]3C[C@H]4OC(c5ccc(F)cc5)O[C@@]4(C(=O)SCC#N)[C@@]3(C)C[C@H](O)[C@@]12F` (stereo partly drawn) [Example 26, S-(Cyanomethyl)(4aS,4bR,5S,6aS,6bS,9aR,10aS,10bS,12S)-4b,12-difluoro-8-(4-fluorophenyl)-5-hydroxy-4a,6a-dimethyl-2-oxo-2,4a,4b,5,6,6a,9a,10,10a,10b,11,12-dodecahydro-6bH-naphtho[2′,1′:4,5]indeno[1,2-d][1,3]dioxole-6b-carbothioate] reads 1.1 nM; that for `C[C@]12C=CC(=O)C=C1[C@@H](F)C[C@H]1[C@@H]3C[C@H]4OC(c5ccc(C(F)(F)F)cc5)O[C@@]4(C(=O)SCC#N)[C@@]3(C)C[C@H](O)[C@@]12F` (stereo partly drawn) [Example 20, S-(Cyanomethyl)(4aS,4bR,5S,6aS,6bS,9aR,10aS,10bS,12S)-4b,12-difluoro-5-hydroxy-4a,6a-dimethyl-2-oxo-8-[4-(trifluoromethyl)phenyl]-2,4a,4b,5,6,6a,9a,10,10a,10b,11,12-dodecahydro-6bH-naphtho[2′,1′:4,5]indeno[1,2-d][1,3]dioxole-6b-carbothioate], 2.4 nM; that for `C[C@]12C=CC(=O)C=C1CC[C@@H]1[C@@H]2[C@@H](O)C[C@@]2(C)[C@H]1C[C@H]1OC(c3ccccc3F)O[C@]12C(=O)SCC#N` (stereo partly drawn) [Example 42, S-(Cyanomethyl)(4aR,4bS,5S,6aS,6bS,9aR,10aS,10bS)-8-(2-fluorophenyl)-5-hydroxy-4a,6a-dimethyl-2-oxo-2,4a,4b,5,6,6a,9a,10,10a,10b,11,12-dodecahydro-6bH-naphtho[2′,1′:4,5]indeno[1,2-d][1,3]dioxole-6b-carbothioate], 1.5 nM. For `C[C@]12C=CC(=O)C=C1[C@@H](F)C[C@H]1[C@@H]3C[C@H]4OC(c5ccco5)O[C@@]4(C(=O)SCF)[C@@]3(C)C[C@H](O)[C@@]12F` (stereo partly drawn) [Example 3], the IC50 came out at 0.92 nM.

In the case of `C[C@]12C=CC(=O)C=C1[C@@H](F)C[C@H]1[C@@H]3C[C@H]4OC(c5cc6ccccc6o5)O[C@@]4(C(=O)SCF)[C@@]3(C)C[C@H](O)[C@@]12F` (stereo partly drawn) [Example 12, S-(Fluoromethyl)(4aS,4bR,5S,6aS,6bS,9aR,10aS,10bS,12S)-8-(1-benzofuran-2-yl)-4b,12-difluoro-5-hydroxy-4a,6a-dimethyl-2-oxo-2,4a,4b,5,6,6a,9a,10,10a,10b,11,12-dodecahydro-6bH-naphtho[2′,1′:4,5]indeno[1,2-d][1,3]dioxole-6b-carbothioate], the concentration for half-maximal inhibition (IC50) was determined as 0.86 nM. The result for `CSC(=O)[C@@]12OC(c3ccc(F)cc3F)O[C@@H]1C[C@H]1[C@@H]3C[C@H](F)C4=CC(=O)C=C[C@]4(C)[C@@]3(F)[C@@H](O)C[C@@]12C` (stereo partly drawn) [Example 5, S-Methyl (4aS,4bR,5S,6aS,6bS,9aR,10aS,10bS,12S)-8-(2,4-difluorophenyl)-4b,12-difluoro-5-hydroxy-4a,6a-dimethyl-2-oxo-2,4a,4b,5,6,6a,9a,10,10a,10b,11,12-dodecahydro-6bH-naphtho[2′,1′:4,5]indeno[1,2-d][1,3]dioxole-6b-carbothioate] reads 1.1 nM; that for `C[C@]12C=CC(=O)C=C1[C@@H](F)C[C@H]1[C@@H]3C[C@H]4OC(c5ccco5)O[C@@]4(C(=O)SCC#CCO)[C@@]3(C)C[C@H](O)[C@@]12F` (stereo partly drawn) [Example 2], 1.2 nM.
